The term IC50 denotes the concentration at which inhibition is half-maximal. Low values mean higher potency, high ones lower potency.

This note sets out measurements from publication PMC5785997, “2-Phenylquinazolinones as dual-activity tankyrase-kinase inhibitors” (Scientific Reports, 2018).

Molecules are shown by their SMILES.

One assay concerns the target GSK3β (Homo sapiens, UniProt P49841). Kind of assay: Kinase functional assay (mobility shift), GSK3β. The class given is biochemical. As to conditions: read-out: GSK3β (% Inhib.); for inhibition at 1 µM: 1 µM compound, Table S3; for inhibition at 10 µM: 10 µM compound, Table S4.
In a further assay the test system is Akt. Kind of assay: Kinase functional assay (mobility shift), Akt. The class given is biochemical.
A further assay deals with T1, ARTD4/PARP4 (Homo sapiens, UniProt Q9UKK3).
T1 sequence (Q9UKK3 369-573 limits assumed): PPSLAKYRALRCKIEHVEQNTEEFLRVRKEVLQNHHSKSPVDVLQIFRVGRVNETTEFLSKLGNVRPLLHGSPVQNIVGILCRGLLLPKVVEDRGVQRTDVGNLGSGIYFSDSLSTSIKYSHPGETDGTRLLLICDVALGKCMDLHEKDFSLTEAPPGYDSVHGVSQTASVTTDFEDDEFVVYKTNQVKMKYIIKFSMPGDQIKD
Kind of assay: ARTD profiling, ARTD4.

The target in another assay is p38α (Homo sapiens, UniProt Q16539). Kind of assay: Kinase functional assay (mobility shift), p38α. The class given is biochemical. Conditions: read-out: p38α (% Inhib.); for inhibition at 1 µM: 1 µM compound, Table S3; for inhibition at 10 µM: 10 µM compound, Table S4.
Another assay concerns the target T2, human CK2α-1 (Homo sapiens, UniProt P68400).
T2 construct: purchased Promega V4,482
Kind of assay: ADP-Glo kinase assay, CK2. The class given is biochemical. As to conditions: read-out: CK2 (% Inhib.); for inhibition at 1 µM: 1 µM compound, Table S3; for inhibition at 10 µM: 10 µM compound, Table S4. The protocol: The kinase functional assays were performed using a combination of kinase and 1.5 μM peptide substrate in the presence of ATP. The reaction mixture was analyzed on the Caliper LabChip 3,000 (Caliper, Hopkinton, MA) by the electrophoretic mobility shift of the fluorescent substrate and phosphorylated product. For the inhibition of human CK2α-1, the experiments were carried out with ADP-Glo kinase Assay Kit (Promega V9,101). Assays are described in detail in the Supplementary Methods and Table S6. […]
Dose-response curves were generated to determine the concentration required to inhibit 50% of kinase activity (IC50). Staurosporine (Invitrogen BP2,451) was included as a positive control of each enzymatic assay. The profiling of the kinases was done at 1 and at 10 μM of the compound.
For the inhibition of human CK2α-1, the experiments were carried out in a white 384-microplate low flange (Corning 3,572) with ADP-Glo kinase Assay Kit (Promega V9101) and CK2α-1 Kinase Enzyme System (Promega V4,482). The test compounds and standard staurosporine (Invitrogen BP2451), 25 ng/well CK2α-1 kinase and 50 µM ATP were added in a final volume of 10 µl/well using reaction buffer supplied by kit as assay buffer. The reaction mixture was incubated in gentle shaking for 60 minutes at room temperature. After the incubation 10 µl of ADP-Glo reagent was added and incubated in gentle shaking for 40 minutes at room temperature. Finally 20 µl of Kinase Detection Reagent was added and the plate was incubated on a shaker for 30 minutes at room […]
temperature. […]
Background: ADP-Glo first removes unused ATP, then detects ADP through luciferase.

The target in a further assay is T3, ARTD7/PARP15 (Homo sapiens, UniProt Q460N3).
T3 sequence (Q460N3 482-678 limits assumed): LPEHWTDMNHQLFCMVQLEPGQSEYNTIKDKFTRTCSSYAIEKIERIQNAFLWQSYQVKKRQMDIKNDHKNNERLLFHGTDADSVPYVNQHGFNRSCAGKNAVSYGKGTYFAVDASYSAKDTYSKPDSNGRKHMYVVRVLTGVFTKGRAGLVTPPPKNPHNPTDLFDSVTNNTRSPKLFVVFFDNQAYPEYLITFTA
Kind of assay: ARTD profiling, ARTD7.

In another assay the target is T4, ARTD3/PARP3 (Homo sapiens, UniProt Q9Y6F1).
T4 sequence (Q9Y6F1 1-533): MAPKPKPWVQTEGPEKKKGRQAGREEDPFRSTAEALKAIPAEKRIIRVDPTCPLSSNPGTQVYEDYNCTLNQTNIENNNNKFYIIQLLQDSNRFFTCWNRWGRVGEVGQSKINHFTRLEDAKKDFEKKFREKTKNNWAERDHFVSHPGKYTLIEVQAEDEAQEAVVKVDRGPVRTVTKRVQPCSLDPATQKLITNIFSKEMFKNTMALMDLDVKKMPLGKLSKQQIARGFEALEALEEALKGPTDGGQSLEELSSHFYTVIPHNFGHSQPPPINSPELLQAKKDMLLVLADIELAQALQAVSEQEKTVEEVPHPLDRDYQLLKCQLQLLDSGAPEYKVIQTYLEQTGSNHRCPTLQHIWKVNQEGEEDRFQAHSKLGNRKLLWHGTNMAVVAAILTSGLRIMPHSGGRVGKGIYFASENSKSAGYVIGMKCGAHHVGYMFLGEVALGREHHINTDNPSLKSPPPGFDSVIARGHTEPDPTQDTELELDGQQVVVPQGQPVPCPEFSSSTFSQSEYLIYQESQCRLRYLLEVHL
Kind of assay: ARTD profiling, ARTD3. The class given is biochemical. Conditions: NAD+ 500 nM. The protocol:
(§1) Protein (nM) NAD+ (nM) Incubation Buffer
(§2) Kinase [ATP] Substrate Incubation Reaction buffer

Another assay deals with TNKS2 (Homo sapiens, UniProt Q9H2K2). Nature of the assay: NAD+ quantification activity assay, TNKS2. The class given is biochemical. Conditions: TNKS2 IC50, NAD+ 500 nM. The protocol: The activity assay used to measure the potency of the compounds against TNKS2 is based on the quantification of NAD^+[38]. The reactions were carried out in 96-well plate (Greiner bio-one, U-shaped) and the conditions were the same as reported earlier (Table S5)[24].
The compounds were stored in 100% DMSO at −20 °C. All the compounds were diluted in the TNKS2 assay buffer (50 mM Bis-Tris Propane, 0.5 mM TCEP, 0.01% Triton-100x). Control reactions were used to exclude the effect of compound fluorescence and quenching from the calculations. […] The pIC50 values were calculated and fitted with nonlinear regression using 4-parameters with GraphPad Prism (version 5.0 for windows).
as §1, §2

Another assay deals with T5, ARTD15/PARP16 (Homo sapiens, UniProt Q8N5Y8).
T5 sequence (Q8N5Y8 1-322): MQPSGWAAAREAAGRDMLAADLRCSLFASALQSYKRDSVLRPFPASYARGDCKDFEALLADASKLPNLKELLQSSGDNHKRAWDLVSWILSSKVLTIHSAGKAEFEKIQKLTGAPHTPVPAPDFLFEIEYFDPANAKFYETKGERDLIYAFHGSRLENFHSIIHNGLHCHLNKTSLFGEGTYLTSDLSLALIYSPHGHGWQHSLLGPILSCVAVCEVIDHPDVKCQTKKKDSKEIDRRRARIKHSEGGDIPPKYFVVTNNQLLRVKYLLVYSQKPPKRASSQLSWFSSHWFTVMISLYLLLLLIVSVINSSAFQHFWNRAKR
Nature of the assay: ARTD profiling, ARTD15.

T2 sequence (P68400 whole entry): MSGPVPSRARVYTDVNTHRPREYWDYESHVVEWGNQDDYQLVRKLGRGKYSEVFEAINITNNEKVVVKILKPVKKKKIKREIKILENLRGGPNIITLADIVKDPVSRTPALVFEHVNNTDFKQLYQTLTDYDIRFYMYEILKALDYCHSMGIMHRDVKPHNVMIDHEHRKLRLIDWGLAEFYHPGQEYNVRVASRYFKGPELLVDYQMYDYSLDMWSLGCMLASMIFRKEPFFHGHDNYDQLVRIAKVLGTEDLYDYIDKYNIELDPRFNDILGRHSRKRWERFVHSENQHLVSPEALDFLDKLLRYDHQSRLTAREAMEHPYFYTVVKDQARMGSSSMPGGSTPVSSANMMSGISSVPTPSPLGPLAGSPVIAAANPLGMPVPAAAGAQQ
Chain of GSK3β (P49841 whole entry, species assumed): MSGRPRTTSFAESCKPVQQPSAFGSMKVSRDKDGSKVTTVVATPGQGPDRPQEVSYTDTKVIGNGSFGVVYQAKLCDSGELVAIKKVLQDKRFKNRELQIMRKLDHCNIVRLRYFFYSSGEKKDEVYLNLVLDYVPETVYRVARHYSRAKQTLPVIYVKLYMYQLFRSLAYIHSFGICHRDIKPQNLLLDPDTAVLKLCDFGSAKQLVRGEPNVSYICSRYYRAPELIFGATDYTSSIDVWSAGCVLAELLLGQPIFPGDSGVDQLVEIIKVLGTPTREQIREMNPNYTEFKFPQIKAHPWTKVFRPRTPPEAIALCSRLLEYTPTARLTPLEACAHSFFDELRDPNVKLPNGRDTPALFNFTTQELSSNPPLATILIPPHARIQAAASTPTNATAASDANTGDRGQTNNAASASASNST
Chain of p38α (Q16539 whole entry): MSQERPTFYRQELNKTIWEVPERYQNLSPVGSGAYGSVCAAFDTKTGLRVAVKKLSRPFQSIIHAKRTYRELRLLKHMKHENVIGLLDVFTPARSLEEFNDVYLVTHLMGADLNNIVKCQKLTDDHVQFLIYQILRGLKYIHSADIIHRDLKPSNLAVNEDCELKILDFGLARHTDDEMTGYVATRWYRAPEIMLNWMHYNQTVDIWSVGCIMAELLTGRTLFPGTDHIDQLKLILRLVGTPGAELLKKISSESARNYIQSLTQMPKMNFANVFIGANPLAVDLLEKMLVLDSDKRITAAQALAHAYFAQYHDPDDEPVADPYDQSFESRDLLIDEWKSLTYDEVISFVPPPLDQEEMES
Chain of TNKS2 (Q9H2K2 959-1164): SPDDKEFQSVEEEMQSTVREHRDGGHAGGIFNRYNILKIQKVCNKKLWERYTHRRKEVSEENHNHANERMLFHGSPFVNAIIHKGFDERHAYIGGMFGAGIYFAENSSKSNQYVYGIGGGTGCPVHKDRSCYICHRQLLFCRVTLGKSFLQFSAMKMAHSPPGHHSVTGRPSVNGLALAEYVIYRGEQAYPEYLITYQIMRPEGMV

With `O=c1[nH]c(-c2ccc(N3CCCCC3)cc2)nc2ccccc12` [Compound 30], the inhibition at 1 µM on GSK3β amounted to 1 ± 1%; on p38α, 3 ± 1%; on human CK2α-1, 1 ± 1%. Further, the inhibition at 10 µM on GSK3β is 11 ± 3%; on p38α, 3 ± 3%; at human CK2α-1, 1 ± 1%. For the same molecule, the “AKT (% Inhib.)” value with Akt (1 µM compound, Table S3) was 1 ± 1%; in the assay with Akt (10 µM compound, Table S4) it was 2 ± 2%. For the same molecule, the IC50 is 12 µM on ARTD4/PARP4; above 10 µM against ARTD7/PARP15; 23 µM on ARTD3/PARP3; 0.015 µM on TNKS2; above 10 µM at ARTD15/PARP16.
Consider `CCN(CC)c1ccc(-c2nc3ccccc3c(=O)[nH]2)cc1` [Compound 32], for which the values for the inhibition at 1 µM at GSK3β, at p38α and at human CK2α-1 were 1 ± 1%, 1 ± 1% and 2 ± 1%, respectively. Besides, the results for the inhibition at 10 µM at GSK3β, on p38α and at human CK2α-1 were 4 ± 4%, 20 ± 2% and 2 ± 1%, respectively. For the same molecule, the “AKT (% Inhib.)” value with Akt (1 µM compound, Table S3) is 1 ± 1%; in the assay with Akt (10 µM compound, Table S4), 48 ± 4%. Besides, the IC50 against ARTD4/PARP4 is 5.5 µM; at ARTD7/PARP15, above 10 µM; at ARTD3/PARP3 it was 2.1 µM; on TNKS2 it was 0.01 µM; on ARTD15/PARP16, above 10 µM.
